The structures appear in SMILES notation.

The target in this assay is Potassium voltage-gated channel subfamily KQT member 2 (Rattus norvegicus, UniProt O88943). Kind of assay: KCNQ2 potassium channel inhibitors, dose response, cell-based, automated electrophysiology, set II, rat KCNQ2 (AID 588637).
Chain of Potassium voltage-gated channel subfamily KQT member 2 (O88943 whole entry): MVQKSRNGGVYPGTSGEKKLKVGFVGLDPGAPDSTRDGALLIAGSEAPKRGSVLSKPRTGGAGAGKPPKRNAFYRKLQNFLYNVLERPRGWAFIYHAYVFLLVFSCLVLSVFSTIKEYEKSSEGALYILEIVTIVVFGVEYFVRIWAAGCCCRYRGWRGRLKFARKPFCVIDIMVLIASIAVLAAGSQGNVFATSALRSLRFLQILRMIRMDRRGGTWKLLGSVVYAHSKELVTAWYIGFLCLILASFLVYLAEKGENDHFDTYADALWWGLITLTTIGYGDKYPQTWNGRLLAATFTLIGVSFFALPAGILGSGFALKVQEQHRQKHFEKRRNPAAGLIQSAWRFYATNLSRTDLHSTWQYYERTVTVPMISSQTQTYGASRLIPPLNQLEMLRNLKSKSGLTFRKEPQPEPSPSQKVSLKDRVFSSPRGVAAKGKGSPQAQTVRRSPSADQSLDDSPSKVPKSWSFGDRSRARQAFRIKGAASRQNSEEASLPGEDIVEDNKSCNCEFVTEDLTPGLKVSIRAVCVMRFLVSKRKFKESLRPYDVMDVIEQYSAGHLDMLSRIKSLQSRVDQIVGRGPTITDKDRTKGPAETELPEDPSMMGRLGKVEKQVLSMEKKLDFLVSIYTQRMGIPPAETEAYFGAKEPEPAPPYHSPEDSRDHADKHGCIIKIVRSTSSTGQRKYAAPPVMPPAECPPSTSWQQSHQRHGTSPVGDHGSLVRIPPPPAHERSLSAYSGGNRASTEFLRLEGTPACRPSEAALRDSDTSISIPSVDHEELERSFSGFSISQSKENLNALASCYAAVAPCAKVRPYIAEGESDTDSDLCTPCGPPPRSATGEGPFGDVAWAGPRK

`CC(N=Nc1nc(N2CCCCCC2)nc(N2CCCCCC2)n1)c1ccccc1` (configuration not stated) [(1E)-1-phenylethanone (4,6-diazepan-1-yl-1,3,5-triazin-2-yl)hydrazone] displayed a 50% inhibitory concentration (IC50) of 1.62 µM.
Next, `COc1ccc(-[n+]2c(-c3ccccc3)cc(-c3ccc(C)cc3)cc2-c2ccccc2)cc1`: 11.1 µM.

For the origin of these results see BindingDB's records for doi:10.7270/Q2W37TT2 (Johns Hopkins Ion Channel Center, 2011).
